Reference: ChEMBL document CHEMBL1147587, “Synthesis of 7'-[123I]iodo-D-luciferin for in vivo studies of firefly luciferase gene expression” (Bioorg Med Chem Lett, 2004)

Tested on: Lampyridae
Description: Michaelis-Menten constant for binding affinity towards firefly luciferase

O=C(O)[C@H]1CSC(c2nc3ccc(O)c(I)c3s2)=N1
Km: 4.28 µM
